Molecules are shown by their SMILES. Several values for one entry are separate records, joined by “and”; a condition that tells them apart may be missing. Equal values may be shown once.

This note sets out measurements from US7541375B2, “Azole derivatives and pharmaceutical compositions containing them” (Laboratoires Serono SA, priority 2001, dated 2009).

Experiment [1] deals with murine colon carcinoma C26 cells. In words: Growth of tumors induced in CDF1 mice with murine colon carcinoma C26 cells. It is filed as in vivo. The procedure:
The aim of this study was to evaluate the effects of Example No. 30 in FIG. 1: […] Control group (empty circles) was treated with NP3S (5% N-methylpyrrolidone/30% PEG400/25% PEG200/20% Propylene Glycol in Saline) per os bid. […] Drugs treatment started 8 days following C26 cell injection and then continued for 13 days. […] Tumor volume and body weight were monitored every three days from day 8 until day 20.

In a further experiment the test system is Colon C26 cell. Briefly: Colon C26 cell anti-proliferation assay. It is filed as cell-based, murine. The settings on record: Mus musculus; Colon C26 cells, 2×10^3 cells/well. The procedure:
(§1) Compounds of the invention were tested for anti-proliferation activity against colon tumors (Colo205, HT-29, C26 and SW660 cell lines) by procedures described in Example 40 above. 2×10^3 cells/well used.

The target in experiment [2] is MEK-1 (constitutively active MEK1EE) (Homo sapiens, UniProt Q02750, S218E/S222E). Briefly: MEK-1 enzyme assay (HTRF, phosphorylation of ERK2K52A). It is filed as biochemical. The settings on record: 3 μM ATP, 2 hours room temperature. The procedure:
A 50 μl mixture containing 15 nM constitutively active MEK1EE and 300 nM of ERK2K52A were incubated either in the presence or absence of the compounds of the invention in 1% DMSO and 1× kinase buffer containing 3 μM ATP, […], […], 1 mM DTT and 100 μM Na3VO4 in Wallac 96 well black plates for 2 hours at room temperature. At the end of the incubation the enzyme reaction was quenched by adding 50 μl of assay buffer containing […] Tris-HCl, 50 mM EDTA, 0.1% BSA and a mixture of 1.25 μg/ml europium labeled anti-phosphotyrosine mAb and 5 μg/ml allophycocyanin labeled (APC) anti-GST antibody. Plates were agitated on a plate shaker for 30 minutes and phosphorylation of the ERK2K52A substrate was measured by homogenous time resolved fluorescence (HTRF) at 340 nm excitation and […] emission filters on the VICTOR V fluorescence plate reader. The results are of phosphorylation of ERK-2, with inhibition occurring at the MEK-1 level. Results were as follows for the specified compounds: […]

The target of the next experiment is MEK-1/ERK-2 (Homo sapiens, UniProt Q02750, S218E/S222E). In words: MEK-1/ERK-2 enzyme cascade assay (33P incorporation into MBP biotin). It is filed as biochemical. The settings on record: 3 μM ATP, phosphorylation of myelin basic protein. The procedure: MEK-1/ERK-2 Enzyme Cascade Assay
MEK-1/ERK-2, sequence (Q02750 whole entry S218E/S222E): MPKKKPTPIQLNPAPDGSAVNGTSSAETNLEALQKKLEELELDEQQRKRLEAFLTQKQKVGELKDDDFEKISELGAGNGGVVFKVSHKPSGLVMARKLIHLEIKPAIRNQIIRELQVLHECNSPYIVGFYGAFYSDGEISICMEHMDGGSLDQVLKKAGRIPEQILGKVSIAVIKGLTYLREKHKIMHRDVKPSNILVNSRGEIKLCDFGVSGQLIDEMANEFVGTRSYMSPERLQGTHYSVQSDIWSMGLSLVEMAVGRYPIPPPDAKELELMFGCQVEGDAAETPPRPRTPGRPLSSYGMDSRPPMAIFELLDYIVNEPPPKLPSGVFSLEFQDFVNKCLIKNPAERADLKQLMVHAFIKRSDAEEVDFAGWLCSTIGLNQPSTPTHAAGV
A 50 μl mixture containing 40 nM of constitutively active MEK1EE, 160 nM of ERK2 and 10 μM MBP biotin were incubated in the presence or absence of the below compound of the invention in 1% DMSO and 1× kinase buffer containing 3 μM ATP, 50 mM Tris-HCl pH 8.0, 10 mM MgCl2, 1 mM DTT, 100 μM Na3VO4 and […] ^33P-γATP in Wallac 96 well white plates for 2 hours at room temperature. At the end of the incubation the enzyme reaction was quenched by adding 200 μl Phosphate buffered saline (PBS) solution containing 1.25 mg/ml Streptavidin SPA beads, 50 mM EDTA and 0.1% Triton 100 and incubated further for 12-14 hours at room temperature. ^33P-γATP incorporation into MBP biotin was measured using the top counts. The assay read-out is phosphorylation of myelin basic protein, which is a representative substrate of ERK-2-phos. This assay is a further confirmatory screen of the assay of Example 38 above.

Experiment [3] has as its system ovarian cancer OVCAR-3 cells. Briefly: OVCAR-3 tumor cell proliferation assay. The settings on record: Homo sapiens; OVCAR-3, ATP lite cell proliferation kit. It is filed as cell-based.
Procedure: (§2) Breast cancer MCF-7 cells or ovarian cancer OVCAR-3 cells were plated in 96 well Packard white plates at 4×10^3 cells/well and cultured overnight at 37° C. in 5% CO2. The below specified test compounds were serially diluted in 100% DMSO and subsequently added to cells to reach a final concentration of 0.5% DMSO. MCF-7 and OVCAR-3 (ATCC HTB-161) plates were incubated for an additional 4 to 5 days respectively at 37° C. and 5% CO2 and cell proliferation was quantitated using the ATP lite cell proliferation kit (Packard).
Experiment [4] relates to Colon 205 cell (ATCC CCL-222). In words: Colon 205 cell anti-proliferation assay. It is filed as cell-based. The settings on record: Colon 205 cells, 2×10^3 cells/well. The method, then: as §1
For the next experiment, the system named is HT-29 cell (ATCC HTB-38). In words: HT-29 cell anti-proliferation assay. It is filed as cell-based. The settings on record: Homo sapiens; HT-29 cells, 2×10^3 cells/well. The procedure: as §1
The subject of experiment [5] is SW 660 cell (ATCC CCL-227). In words: SW 660 cell anti-proliferation assay. It is filed as cell-based. The settings on record: SW 660 cells, 2×10^3 cells/well. The procedure: as §1
Another experiment relates to TNF release (TNF-α). In words: Inhibition of TNF-alpha production in LPS-stimulated mice. The settings on record: −15 mn before LPS. It is filed as in vivo. The method, then:
Injection of lipopolysaccharide (LPS) induces a rapid release of soluble tumor necrosis factor (TNF-α) into the periphery. This model is used to identify potential blockers of TNF release in vivo
The potency of compounds of the invention as inhibitors of serum TNFα elevation in mice treated with LPS is determined as follows:
• For per oral (p.o.) administration, compounds of the invention are formulated in 0.5% carboxymethyl cellulose/0.25% Tween 80 in saline and given orally via gavage […] to LPS administration. Dexamethasone is used as the reference compound and given at 0.1 mg/kg per orally. • C3/hen female mice (Iffa-Credo, France) are injected intraperitoneally with 0.3 mg/kg LPS (Escherichia coli, Serotype 0111:B4, Sigma Chemical Co., St. Louis, Mo.) and sacrificed 90 min later by CO2 asphyxiation. Blood is immediately taken from caudal vena cava and plasma prepared and frozen at −80° C. Each group of treatment contained 6 animals.

Experiment [6] has as its system Breast cancer MCF-7 cells. Briefly: MCF-7 tumor cell proliferation assay. The settings on record: Homo sapiens, MCF7; MCF-7, ATP lite cell proliferation kit. It is filed as cell-based.
Procedure: as §2

MEK-1 (constitutively active MEK1EE), sequence (Q02750 whole entry S218E/S222E, species assumed): as the sequence (Q02750 whole entry S218E/S222E) above

As to `O=P1(N(CCCl)CCCl)NCCCO1` (stereo not shown) [Cyclophosphamide, reference compound], the “inhibition of tumor growth at day 20” value in experiment [1] (50 mg/kg s.c. every third day, 5 treatments, day 20) turned out to be 73%. The “tumor growth (tumor volume)” value in [1] (50 mg/kg s.c. every third day, day 11 until day 20 (p<0.001)) is reported as “significantly slowed down tumor growth”. For the same molecule, the “tumor-associated loss in body weight” value in [1] (50 mg/kg s.c. every third day, from day 11) is recorded as “markedly prevented”.
Usually IC50 stands for the midpoint of a concentration-inhibition curve. `O=C(NC(COc1ccc(F)cc1)Cn1ccnc1Cl)c1ccc(I)cc1` (stereo not shown) [Example 34, N-[1-(2-Chloro-imidazol-1-ylmethyl)-2-(4-fluoro-phenoxy)-ethyl]-4-iodo-benzamide] yielded an IC50 in the experiment with Colon C26 cell of 1250 nM.
With `O=C(N[C@@H](COc1ccccc1)Cn1ccnc1)c1ccc(I)cc1` [Example 27, N-(1-imidazol-1-ylmethyl-2-phenoxy-ethyl)-4-iodo-benzamide], the 50% inhibitory concentration (IC50) in experiment [2] was determined as 92 nM; against MEK-1/ERK-2, 85 nM; in experiment [3], 50000 nM; in experiment [4], 2100 nM; with HT-29 cell (ATCC HTB-38), 2800 nM; in experiment [5] it was 2200 nM. The “TNF Release vs LPS inj. % of inhibition Mean ± SEM” value is recorded as 32 ± 5% in the experiment on TNF release (TNF-α) (12.5 mg/kg p.o.) and 39 ± 3% in the experiment with TNF release (TNF-α) (50 mg/kg p.o.).
The molecule `N#Cc1ccc(OCC(Cn2ccnc2Cl)NC(=O)c2ccc(I)cc2)cc1` (stereo not shown) [Example 35, N-[1-(2-Chloro-imidazol-1-ylmethyl)-2-(4-cyano-phenoxy)-ethyl]-4-iodo-benzamide] registered a half-maximal inhibitory concentration (IC50) in the experiment with Colon C26 cell of 300 nM.
Regarding `O=C(O[C@@H](COc1cccnc1)Cn1ccnc1)c1ccc(I)cc1` [Example 22, 4-Iodo-benzoic acid 1-imidazol-3-yl methyl-2-(pyridin-3-yloxy)-ethyl ester], the concentration for half-maximal inhibition (IC50) in experiment [2] was determined as 11 nM; with Colon C26 cell it was 1080 nM.
`C[C@@H]1C[C@H]2[C@@H]3CCC4=CC(=O)C=C[C@]4(C)[C@@]3(F)[C@@H](O)C[C@]2(C)[C@@]1(O)C(=O)CO` [Dexamethasone, reference compound]: in the experiment on TNF release (TNF-α) (0.1 mg/kg p.o.), the “TNF Release vs LPS inj. % of inhibition Mean ± SEM” value is 86 ± 6% and 88 ± 1%.
In experiment [2], `O=C(NC(COc1ccc(F)cc1)Cn1ccnc1)c1ccc(I)cc1` (stereo not shown) [Example 30, N-[2-(4-Fluoro-phenoxy)-1-imidazol-1-ylmethyl-ethyl]-4-iodo-benzamide] had an IC50 of 21 nM. Besides, the “TNF Release vs LPS inj. % of inhibition Mean ± SEM” value in the experiment with TNF release (TNF-α) (12.5 mg/kg p.o.) came out at 77 ± 2%; with TNF release (TNF-α) (50 mg/kg p.o.), 85 ± 3%. The “tumor-induced body weight loss” value in experiment [1] (50 mg/kg p.o. bid) and in experiment [1] (100 mg/kg p.o. bid) was “significant prevention of tumor-induced body weight loss” in each case. In experiment [1] (100 mg/kg p.o. bid, day 20, vs NP3S control), the “inhibition of tumor growth rate evaluated at day 20” value worked out at 37%. The “tumor growth vs NP3S control group” value in experiment [1] (100 mg/kg p.o. bid, significant from day 11 to day 20) is “reduced tumor growth”.
Take `O=C(OC(COc1ccc([N+](=O)[O-])cc1)Cn1ccnc1)c1ccc(I)cc1` (stereo not shown) [Example 18, 4-Iodo-benzoic acid 2-imidazol-1-yl-1-(4-nitro-phenoxymethyl)-ethyl ester]: the concentration for half-maximal inhibition (IC50) turned out to be 15 nM in experiment [2] and 570 nM with Colon C26 cell.
Turning to `COc1ccc(C(=O)OC(COc2ccccc2)Cn2ccnc2)cc1` (racemic) [4-methoxy-benzoic acid 1-imidazol-1-yl methyl-2-phenoxy-ethyl ester (racemic), 4-methoxy-benzoic acid 1-imidazol-1-yl methyl-2-phenoxy-ethyl ester], the IC50 in [2] turned out to be 1630 ± 241 nM; at MEK-1/ERK-2, 1780 ± 254 nM.
On to `COc1ccc(C(=O)O[C@@H](COc2ccccc2)Cn2ccnc2)cc1` [Example 6, (R)-4-Methoxy-benzoic acid 1-imidazol-1-yl methyl-2-phenoxy-ethyl ester], for which the half-inhibitory concentration (IC50) was found to be 860 ± 93 nM in experiment [2]; 920 ± 174 nM on MEK-1/ERK-2; 32500 ± 3500 nM in [6]; 40000 nM in experiment [3]; 22500 nM in [4]; 27500 nM in the experiment on HT-29 cell (ATCC HTB-38). This molecule also displayed a half-inhibitory concentration (IC50) in experiment [5] of 20000 nM.
